IC50 data for one molecule are collected here from BindingDB's records for doi:10.1016/j.bmcl.2011.12.117 (Astrazeneca, 2012).

For orientation: pIC50 means −log10 of the IC50, conventionally taken in molar units.

The structures appear in SMILES notation. pIC50: −log10 of the molar value.

A short description of the assay: Antagonist activity at CCR5 in allo T cells assessed as inhibition of MIP-1beta-induced chemotaxis.

As to `CCN(C(=O)Cc1ccc(S(C)(=O)=O)cc1)C1CCN(CC[C@@H](c2cc(F)cc(F)c2)C2CCN(S(C)(=O)=O)CC2)CC1`, the pIC50 is 9.16.
